# Experimental data reported in ChEMBL document CHEMBL4340502, “Anti-biofilm and anti-adherence properties of novel cyclic dipeptides against oral pathogens” (Bioorg Med Chem, 2019).
# Calls of active or inactive are those of the source. Unless noted, no cut-off for these calls is given here.
# Legend:
# Candida albicans [1] = assay: Disruption of Candida albicans ATCC 28366 pre-formed mature biofilm assessed as reduction in biofilm biomass at 96 ug/mL after 12 hrs by crystal violet staining based assay; type: functional, organism-based
# Streptococcus mutans [2] = assay: Disruption of Streptococcus mutans ATCC 25175 pre-formed mature biofilm assessed as reduction in biofilm biomass at 96 ug/mL after 12 hrs by crystal violet staining based assay; type: functional, organism-based
# Candida albicans [3] = assay: Antibiofilm activity against Candida albicans ATCC 28366 assessed as reduction of biofilm formation at 24 to 48 ug/mL after 24 hrs by crystal violet staining based assay; type: functional, organism-based
# Actinomyces naeslundii [4] = assay: Antibiofilm activity against Actinomyces naeslundii ATCC 49340 assessed as prevention of homogenous biofilm formation at 96 ug/mL after 24 hrs by crystal violet staining-based assay; type: functional, organism-based
# Streptococcus mutans [5] = assay: Antibiofilm activity against Streptococcus mutans ATCC 25175 assessed as inhibition of biofilm formation at 6 to 12 ug/mL after 24 hrs by crystal violet staining-based assay; type: functional, organism-based
# Pseudomonas aeruginosa = assay: Growth inhibition of Pseudomonas aeruginosa ATCC 10145 incubated for 24 hrs under aerobic condition by microdilution method; type: organism-based
# Candida albicans [6] = assay: Growth inhibition of Candida albicans ATCC 28366 up to 96 ug/ml measured after 24 hrs by microdilution method; type: organism-based; settings: in vitro
# Streptococcus mutans [7] = assay: Inhibition of planktonic growth of Streptococcus mutans ATCC 25175 up to 96 ug/mL after 24 hrs relative to control; type: organism-based
# Streptococcus mutans [8] = assay: Antibiofilm activity against Streptococcus mutans ATCC 25175 assessed as inhibition of biofilm formation up to 96 ug/mL after 24 hrs by crystal violet staining-based assay; type: functional, organism-based
# Candida albicans [9] = assay: Antiadherence activity against FITC-labelled Candida albicans ATCC 28366 assessed as reduction in bacterial adhesion to hydroxylapatite up to 96 ug/mL after 1 hr by fluorescence assay relative to control; type: functional
# Staphylococcus aureus = assay: Growth inhibition of Staphylococcus aureus ATCC 6538 incubated for 24 hrs under aerobic condition by microdilution method; type: organism-based; settings: in vitro
# Porphyromonas gingivalis = assay: Antibiofilm activity against Porphyromonas gingivalis ATCC 33277 assessed as inhibition of biofilm formation up to 96 ug/mL after 24 hrs by crystal violet staining based assay; type: functional, organism-based
# Fusobacterium nucleatum = assay: Antibiofilm activity against Fusobacterium nucleatum ATCC 25586 assessed as inhibition of biofilm formation up to 96 ug/mL after 24 hrs by crystal violet staining based assay; type: functional, organism-based
# Candida albicans [10] = assay: Antibiofilm activity against Candida albicans ATCC 28366 assessed as reduction of biofilm formation after 24 hrs by crystal violet staining based assay; type: functional, organism-based
# Streptococcus mutans [11] = assay: Antiadherence activity in FITC-labelled Streptococcus mutans ATCC 25175 assessed as reduction in bacterial adhesion to hydroxylapatite up to 96 ug/mL after 1 hr fluorescence assay; type: functional, organism-based
# Escherichia coli = assay: Growth inhibition of Escherichia coli ATCC 15939 incubated for 24 hrs under aerobic condition by microdilution method; type: organism-based
# Listeria monocytogenes = assay: Growth inhibition of Listeria monocytogenes WSLC 1001 incubated for 24 hrs under aerobic condition by microdilution method; type: organism-based; settings: in vitro
# [12] = system: Limosilactobacillus fermentum; assay: Antibiofilm activity against Lactobacillus fermentum LacB1 assessed as inhibition of biofilm formation up to 96 ug/mL after 24 hrs by crystal violet staining based assay; type: functional, organism-based
# Actinomyces naeslundii [13] = assay: Antibiofilm activity against Actinomyces naeslundii ATCC 49340 assessed as prevention of homogenous biofilm formation up to 96 ug/mL after 24 hrs by crystal violet staining based assay; type: functional, organism-based
# Actinomyces naeslundii [14] = assay: Antibiofilm activity against Actinomyces naeslundii ATCC 49340 assessed as reduction of biofilm formation at 48 ug/mL after 24 hrs by crystal violet staining based assay; type: functional, organism-based
# Actinomyces naeslundii [15] = assay: Antibiofilm activity against Actinomyces naeslundii ATCC 49340 assessed as reduction of biofilm formation by visual analysis; type: functional, organism-based
# Actinomyces naeslundii [16] = assay: Antibiofilm activity against Actinomyces naeslundii ATCC 49340 assessed as inhibition of bacterial adhesion up to 96 ug/mL after 24 hrs by crystal violet staining based assay; type: functional, organism-based
# [17] = Solubility of the compound in water; type: physicochemical; settings: buffer
# Enterococcus faecalis = assay: Antimicrobial activity against vancomycin-resistant Enterococcus faecalis measured after 24 hrs by agar-dilution method; type: functional
SMILES,MIC (Pseudomonas aeruginosa),growth inhibition (GI) (Streptococcus mutans [7]),inhibition (Streptococcus mutans [8]),MIC (Staphylococcus aureus),inhibition (Porphyromonas gingivalis),inhibition (Fusobacterium nucleatum),MIC (Escherichia coli),MIC (Listeria monocytogenes),inhibition [12],other results
O=C1N[C@@H](Cc2ccc(OCc3ccccc3)cc2)C(=O)N[C@H]1Cc1ccccc1,> 192 µg/mL,Non-Toxic,Active,> 192 µg/mL,inactive,inactive,> 192 µg/mL,> 192 µg/mL,inactive,Activity (Candida albicans [1]): inactive; Activity (Streptococcus mutans [2]): inactive; Activity (Candida albicans [3]): Active; Activity (Actinomyces naeslundii [4]): inactive; Activity (Streptococcus mutans [5]): Active; growth inhibition (GI) (Candida albicans [6]): Non-Toxic; Activity (Candida albicans [9]): Active; Activity (Candida albicans [10]): Dose-dependent effect; Activity (Streptococcus mutans [11]): Active
O=C1N[C@@H](Cc2ccccc2)C(=O)N[C@H]1Cc1ccccc1,> 192 µg/mL,Non-Toxic,inactive,> 192 µg/mL,inactive,inactive,> 192 µg/mL,> 192 µg/mL,inactive,–
O=C1N[C@H](Cc2ccccc2)C(=O)N[C@@H]1Cc1ccccc1,> 192 µg/mL,Non-Toxic,inactive,> 192 µg/mL,inactive,inactive,> 192 µg/mL,> 192 µg/mL,inactive,–
O=C1N[C@H](Cc2ccc(OCc3ccccc3)cc2)C(=O)N[C@@H]1Cc1ccccc1,> 192 µg/mL,Non-Toxic,Active,> 192 µg/mL,inactive,inactive,> 192 µg/mL,> 192 µg/mL,inactive,Activity (Candida albicans [1]): inactive; Activity (Streptococcus mutans [2]): inactive; Activity (Candida albicans [3]): Active; Activity (Actinomyces naeslundii [13]): Active; Activity (Streptococcus mutans [5]): Active; growth inhibition (GI) (Candida albicans [6]): Non-Toxic; inhibition (Actinomyces naeslundii [14]): Active; Activity (Candida albicans [9]): Active; Activity (Candida albicans [10]): Dose-dependent effect; Activity (Streptococcus mutans [11]): Active; inhibition (Actinomyces naeslundii [15]): Active; inhibition (Actinomyces naeslundii [16]): inactive
O=C1N[C@H](Cc2ccc(OCc3ccccc3)cc2)C(=O)N[C@H]1Cc1ccccc1,> 192 µg/mL,Non-Toxic,inactive,> 192 µg/mL,inactive,inactive,> 192 µg/mL,> 192 µg/mL,inactive,solubility [17]: Insoluble
O=C1N[C@H](Cc2ccccc2)C(=O)N[C@H]1Cc1ccc(OCc2ccccc2)cc1,> 192 µg/mL,Non-Toxic,Active,> 192 µg/mL,inactive,inactive,> 192 µg/mL,> 192 µg/mL,inactive,Activity (Candida albicans [1]): inactive; Activity (Streptococcus mutans [2]): inactive; Activity (Candida albicans [3]): Active; Activity (Actinomyces naeslundii [13]): Active; Activity (Streptococcus mutans [5]): Active; growth inhibition (GI) (Candida albicans [6]): Non-Toxic; inhibition (Actinomyces naeslundii [14]): Active; Activity (Candida albicans [9]): Active; Activity (Candida albicans [10]): Dose-dependent effect; Activity (Streptococcus mutans [11]): Active; inhibition (Actinomyces naeslundii [15]): Active; inhibition (Actinomyces naeslundii [16]): inactive
O=C1N[C@@H](Cc2ccc(OCc3ccccc3)cc2)C(=O)N[C@H]1Cc1ccc(OCc2ccccc2)cc1,> 192 µg/mL,Non-Toxic,Active,> 192 µg/mL,inactive,inactive,> 192 µg/mL,> 192 µg/mL,inactive,Activity (Candida albicans [1]): inactive; Activity (Streptococcus mutans [2]): inactive; Activity (Candida albicans [3]): Active; Activity (Actinomyces naeslundii [13]): Active; Activity (Streptococcus mutans [5]): Active; growth inhibition (GI) (Candida albicans [6]): Non-Toxic; inhibition (Actinomyces naeslundii [14]): Active; Activity (Candida albicans [9]): Active; Activity (Candida albicans [10]): Dose-dependent effect; Activity (Streptococcus mutans [11]): Active; inhibition (Actinomyces naeslundii [15]): Active; inhibition (Actinomyces naeslundii [16]): inactive
O=C1N[C@H](Cc2ccccc2)C(=O)N[C@H]1Cc1ccccc1,> 192 µg/mL,Non-Toxic,inactive,> 192 µg/mL,inactive,inactive,> 192 µg/mL,> 192 µg/mL,inactive,–
CC(C)C[C@@H]1NC(=O)[C@@H]2CCCN2C1=O,–,Non-Toxic,inactive,–,inactive,inactive,–,–,–,MIC (Enterococcus faecalis): 12.5 µg/mL
O=C1N[C@H](Cc2ccc(OCc3ccccc3)cc2)C(=O)N[C@@H]1Cc1ccc(OCc2ccccc2)cc1,> 192 µg/mL,Non-Toxic,Active,> 192 µg/mL,inactive,inactive,> 192 µg/mL,> 192 µg/mL,inactive,Activity (Candida albicans [1]): inactive; Activity (Streptococcus mutans [2]): inactive; Activity (Candida albicans [3]): Active; Activity (Actinomyces naeslundii [13]): Active; Activity (Streptococcus mutans [5]): Active; growth inhibition (GI) (Candida albicans [6]): Non-Toxic; inhibition (Actinomyces naeslundii [14]): Active; Activity (Candida albicans [9]): Active; Activity (Candida albicans [10]): Dose-dependent effect; Activity (Streptococcus mutans [11]): Active; inhibition (Actinomyces naeslundii [15]): Active; inhibition (Actinomyces naeslundii [16]): inactive
C[C@H]1NC(=O)[C@@H](C)NC1=O,–,Non-Toxic,inactive,–,inactive,inactive,–,–,–,–
CC(C)C[C@H]1NC(=O)[C@@H](CC(C)C)NC1=O,–,Non-Toxic,inactive,–,inactive,inactive,–,–,–,–
CC(C)C[C@@H]1NC(=O)[C@H](Cc2ccccc2)NC1=O,–,Non-Toxic,inactive,–,inactive,inactive,–,–,–,–
CC(C)[C@@H]1NC(=O)[C@@H](Cc2ccc(OCc3ccccc3)cc2)NC1=O,–,Non-Toxic,inactive,–,inactive,inactive,–,–,–,–
N=C(N)N(CCC[C@@H]1NC(=O)[C@H](CCCCNC(=O)OCc2ccccc2)NC1=O)[N+](=O)[O-],–,Non-Toxic,inactive,–,inactive,inactive,–,–,–,–
O=C1[C@@H]2CSCN2C(=O)[C@@H]2CSCN12,–,Non-Toxic,inactive,–,inactive,inactive,–,–,–,–
O=C1[C@@H]2CCCN2C(=O)[C@H]2CCCN12,–,Non-Toxic,inactive,–,inactive,inactive,–,–,–,–
C[C@@H]1NC(=O)[C@@H](C)NC1=O,–,Non-Toxic,inactive,–,inactive,inactive,–,–,–,–
